The values below come from publication PMC7224190, “Pharmacological inhibition of PRMT7 links arginine monomethylation to the cellular stress response” (Nature Communications, 2020).

SMILES strings stand for the structures.

Holding throughout (experiment): biochemical
Holding throughout (conditions): read-out: % of control remaining

One experiment deals with T1, PRMT9 (Homo sapiens, UniProt Q6P2P2).
T1 sequence (Q6P2P2 1-845): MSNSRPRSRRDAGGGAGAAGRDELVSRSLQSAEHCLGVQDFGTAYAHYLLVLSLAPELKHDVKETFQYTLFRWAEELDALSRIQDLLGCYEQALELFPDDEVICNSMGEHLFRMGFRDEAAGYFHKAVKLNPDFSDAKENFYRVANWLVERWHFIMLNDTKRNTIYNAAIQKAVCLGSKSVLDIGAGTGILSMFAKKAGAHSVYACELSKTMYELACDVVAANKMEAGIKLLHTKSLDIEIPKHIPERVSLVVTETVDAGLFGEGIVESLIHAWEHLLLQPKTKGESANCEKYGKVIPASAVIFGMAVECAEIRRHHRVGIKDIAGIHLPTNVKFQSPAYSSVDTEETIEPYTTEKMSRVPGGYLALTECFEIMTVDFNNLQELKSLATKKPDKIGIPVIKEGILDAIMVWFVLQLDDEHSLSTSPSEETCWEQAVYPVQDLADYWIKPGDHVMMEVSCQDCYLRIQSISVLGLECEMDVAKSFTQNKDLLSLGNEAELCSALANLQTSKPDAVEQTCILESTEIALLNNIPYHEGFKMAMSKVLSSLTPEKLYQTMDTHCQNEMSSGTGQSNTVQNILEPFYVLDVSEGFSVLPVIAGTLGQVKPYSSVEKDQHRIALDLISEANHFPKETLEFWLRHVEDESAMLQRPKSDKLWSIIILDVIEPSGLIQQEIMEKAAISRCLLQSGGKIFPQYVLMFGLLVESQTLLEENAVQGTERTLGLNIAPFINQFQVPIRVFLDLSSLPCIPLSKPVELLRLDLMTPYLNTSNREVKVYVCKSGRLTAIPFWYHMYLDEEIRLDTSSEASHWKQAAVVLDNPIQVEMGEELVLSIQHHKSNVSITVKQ
Also noted: radiometric methyltransferase selectivity assay with tritiated SAM, per cent activity. The method, then:
(§1) The methyltransferase selectivity was assessed at two compound concentrations of 1 and 10 μM by radiometric assays using tritiated-SAM. For methyltransferases: MLL1, MLL3, EZH1 (PRC2), and EZH2 (PRC2), G9a, GLP, SUV39H1, SUV39H2, SUV420H1, SUV420H2, SETD2, SETD8, SETDB1, SETD7, PRMT1, PRMT3, PRMT4, PRMT5/ MEP50 complex, PRMT6, PRMT7, PRMT8, PRMT9, PRDM9, SMYD2, SMYD3, DNMT1, and BCDIN3D the incorporation of a tritium-labeled methyl group into biotinylated substrate was monitored using scintillation proximity assay (SPA). Briefly, a 10 μL reaction containing ^3H-SAM and substrate at concentrations close to the apparent Km values for each enzyme (balanced conditions) was prepared. The reactions were quenched with 10 μL of 7.5 M guanidine hydrochloride; 180 μL of 20 mM Tris buffer (pH 8.0) were added, and the mixture was transferred to a 96-well FlashPlate and incubated for 1 h. The counts per minute (CPM) was measured on a TopCount plate reader. The CPM in the absence of compound or enzyme was defined as 100% activity and background (0%), respectively, for each dataset[74]–[76]. Selectivity of SGC8158 against 342 kinases was evaluated in a kinase panel TR-FRET assay at 1 and 0.1 μM compound in duplicates as described before. Briefly, tagged kinases were incubated with compound and staurosporine-based fluorescent probe where the binding was detected using Tb conjugated anti-tag antibody energy transfer to the probe. Excitation wavelength was 337 nm and fluorescent emission signal was measured for Tb (486 nm) and fluorescent probe (BODIPY, 515 nm). Specific and non-specific binding was determined in the absence and presence of unlabeled staurosporine.

Another experiment has as its target PRC2-EZH2 (Homo sapiens, UniProt Q15910). Also noted: radiometric methyltransferase selectivity assay with tritiated SAM, per cent activity.
The next experiment concerns the target T2, PRMT7 (Homo sapiens, UniProt Q9NVM4).
T2 sequence (Q9NVM4 1-692): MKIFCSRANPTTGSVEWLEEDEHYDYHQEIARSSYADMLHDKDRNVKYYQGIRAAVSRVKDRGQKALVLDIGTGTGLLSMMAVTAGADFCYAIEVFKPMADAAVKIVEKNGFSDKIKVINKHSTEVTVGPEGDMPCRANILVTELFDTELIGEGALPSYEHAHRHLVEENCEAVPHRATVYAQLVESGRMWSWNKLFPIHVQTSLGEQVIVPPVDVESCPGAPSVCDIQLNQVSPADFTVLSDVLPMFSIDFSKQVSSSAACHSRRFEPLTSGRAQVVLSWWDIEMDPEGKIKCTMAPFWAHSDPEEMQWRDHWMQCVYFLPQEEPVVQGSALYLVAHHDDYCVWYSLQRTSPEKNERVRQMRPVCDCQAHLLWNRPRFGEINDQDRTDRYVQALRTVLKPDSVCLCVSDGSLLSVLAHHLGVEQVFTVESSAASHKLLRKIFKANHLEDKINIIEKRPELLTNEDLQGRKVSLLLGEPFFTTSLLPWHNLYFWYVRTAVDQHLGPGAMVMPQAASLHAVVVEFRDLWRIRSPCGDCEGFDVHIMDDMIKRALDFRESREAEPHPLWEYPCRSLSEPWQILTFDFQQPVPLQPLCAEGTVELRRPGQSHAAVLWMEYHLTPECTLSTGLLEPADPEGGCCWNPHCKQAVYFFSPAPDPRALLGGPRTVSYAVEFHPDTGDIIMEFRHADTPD
Also noted: full-length; radiometric methyltransferase selectivity assay with tritiated SAM, per cent activity. The method, then: as §1

PRC2-EZH2, sequence (Q15910 whole entry): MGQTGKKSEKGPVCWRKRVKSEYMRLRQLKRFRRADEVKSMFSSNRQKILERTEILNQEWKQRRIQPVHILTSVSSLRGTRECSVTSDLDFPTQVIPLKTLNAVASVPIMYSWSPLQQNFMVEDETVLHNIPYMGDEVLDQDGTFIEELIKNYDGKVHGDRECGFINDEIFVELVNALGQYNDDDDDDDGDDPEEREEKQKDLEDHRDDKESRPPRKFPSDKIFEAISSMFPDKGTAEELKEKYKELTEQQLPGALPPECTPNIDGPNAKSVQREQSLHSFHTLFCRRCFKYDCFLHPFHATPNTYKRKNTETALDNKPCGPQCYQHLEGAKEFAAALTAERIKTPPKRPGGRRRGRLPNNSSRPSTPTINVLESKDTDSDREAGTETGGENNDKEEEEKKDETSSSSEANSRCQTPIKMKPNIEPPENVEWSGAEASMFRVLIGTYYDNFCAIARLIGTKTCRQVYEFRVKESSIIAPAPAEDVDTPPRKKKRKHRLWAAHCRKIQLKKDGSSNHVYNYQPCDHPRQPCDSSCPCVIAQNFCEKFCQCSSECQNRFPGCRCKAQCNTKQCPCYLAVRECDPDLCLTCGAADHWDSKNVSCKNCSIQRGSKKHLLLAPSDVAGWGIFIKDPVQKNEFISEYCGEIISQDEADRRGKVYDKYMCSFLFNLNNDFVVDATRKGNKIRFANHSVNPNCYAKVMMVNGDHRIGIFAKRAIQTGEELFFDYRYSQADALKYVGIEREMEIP
PRC2-EZH2, sequence (O75530 whole entry partner): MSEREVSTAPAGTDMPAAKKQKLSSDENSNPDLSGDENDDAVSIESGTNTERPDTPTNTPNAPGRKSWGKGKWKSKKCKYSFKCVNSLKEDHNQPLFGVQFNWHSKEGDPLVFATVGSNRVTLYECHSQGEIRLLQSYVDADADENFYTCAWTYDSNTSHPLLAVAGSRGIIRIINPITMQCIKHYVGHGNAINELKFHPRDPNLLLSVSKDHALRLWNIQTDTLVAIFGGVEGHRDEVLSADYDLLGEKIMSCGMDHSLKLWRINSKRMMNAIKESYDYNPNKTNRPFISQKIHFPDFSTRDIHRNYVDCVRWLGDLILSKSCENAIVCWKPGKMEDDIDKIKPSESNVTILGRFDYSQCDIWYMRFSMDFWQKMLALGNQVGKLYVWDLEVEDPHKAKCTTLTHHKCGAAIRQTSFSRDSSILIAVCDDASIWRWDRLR
PRC2-EZH2, sequence (Q15022 whole entry partner): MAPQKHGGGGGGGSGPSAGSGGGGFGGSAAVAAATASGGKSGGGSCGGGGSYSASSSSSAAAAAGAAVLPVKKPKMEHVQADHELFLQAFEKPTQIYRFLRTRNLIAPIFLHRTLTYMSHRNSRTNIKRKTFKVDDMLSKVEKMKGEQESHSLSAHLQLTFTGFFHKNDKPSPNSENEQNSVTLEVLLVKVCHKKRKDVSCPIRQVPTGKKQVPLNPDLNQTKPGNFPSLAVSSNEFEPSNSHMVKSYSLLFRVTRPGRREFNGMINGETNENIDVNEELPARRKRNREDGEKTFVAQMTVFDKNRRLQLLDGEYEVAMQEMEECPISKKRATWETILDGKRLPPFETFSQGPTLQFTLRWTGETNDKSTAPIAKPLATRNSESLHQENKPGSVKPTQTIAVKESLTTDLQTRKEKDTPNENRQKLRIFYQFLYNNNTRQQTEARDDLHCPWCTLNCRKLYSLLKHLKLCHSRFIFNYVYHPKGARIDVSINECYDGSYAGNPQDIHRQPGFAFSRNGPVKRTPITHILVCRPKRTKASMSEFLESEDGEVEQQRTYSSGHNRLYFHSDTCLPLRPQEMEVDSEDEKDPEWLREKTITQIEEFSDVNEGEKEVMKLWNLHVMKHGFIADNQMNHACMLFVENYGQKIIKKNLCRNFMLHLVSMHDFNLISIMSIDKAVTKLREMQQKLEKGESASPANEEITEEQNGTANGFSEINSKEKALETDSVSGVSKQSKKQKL

As for `CC1(C)O[C@@H]2[C@H](O1)[C@@H](CSCCCCNCc1cccc(-c3ccc(Cl)cc3)c1)O[C@H]2n1cnc2c(N)ncnc21` [SGC8158N], the results for the remaining activity at 1 µM at PRMT9, at PRC2-EZH2 and on PRMT7 were 106%, 93% and 95%, respectively. The remaining activity at 10 µM turned out to be 95% on PRMT9, 88% at PRC2-EZH2 and 75% at PRMT7.

With `Nc1ncnc2c1ncn2[C@@H]1O[C@H](CSCCCCNCc2cccc(-c3ccc(Cl)cc3)c2)[C@@H](O)[C@H]1O` [SGC8158], the remaining activity at 1 µM was determined as 19% at PRMT9, 105% at PRC2-EZH2 and 2% at PRMT7. The values for the remaining activity at 10 µM on PRMT9, at PRC2-EZH2 and at PRMT7 were 4%, 94% and 0%, respectively.
